Where a name gives a salt, the structure may show the parent alone.
Assays:
[1] = Membrane permeability in Caco-2 monolayers; conditions: human; for recovery at 90 min, 250 μM / recovery at 90 min: Caco-2, Recovery [%] mean ± s.d.
Experimental: (§1) The membrane permeability was investigated in Caco-2 monolayers. DMF was investigated in a separate experiment for comparison.
(§2) […] The test concentration in the apical medium was 250 μM. […] Furthermore, a significant metabolism or degradation of the test compound was expected and therefore the parent compound as well as MMF was determined in the acceptor compartment (basolateral medium). Sampling time points were 15, 45 and 90 min.

[2] = test system: Caco-2 monolayers; test: Membrane permeability in Caco-2 monolayers; conditions: for permeability category compared to the reference molecules: Caco-2
Experimental: as §1, §2

[3] = test system: MOG35-55-induced experimental autoimmune encephalomyelitis (EAE); test: MOG35-55-induced experimental autoimmune encephalomyelitis (EAE) in the mouse; format: in vivo, male C57BL/6 mice; conditions: prophylactic treatment from day 1; observations day 1 to 13; dose formulation 11.54 mM, 10 ml/kg
Experimental: The pharmacological efficacy was investigated in experimental autoimmune encephalomyelitis (EAE) in the mouse.
The experiments were performed as follows: male C57BL/6 mice, 12 weeks old, 10 animals per treatment group, were used. On day 1, animals were immunized by sub-cutaneous injection of MOG35-55, which was mixed in complete Freund's adjuvants. On the same day as well as on day 3 the animals received a sub-cutaneous injection of Pertussis-toxin.
Assessment and comparison of the efficacy of compounds of the invention and DMF (reference) in MOG35-55-induced experimental autoimmune encephalomyelitis (EAE) in C57BL/6 mice. • Test system: male C57BL/6 mice, 12 weeks old; 10 animals per treatment group; • Induction of EAE: Day 1—subcutaneous injection of MOG35-55, suspended in complete Freund's adjuvants and intraperitoneal injection of pertussis toxin. • Day 3—intraperitoneal injection of pertussis toxin. • Treatment: Dimethylfumarate and test substances or vehicle only were administered via oral and intravenous route. For oral administration, test substances were dissolved or suspended in 0.5% hydroxyethylcellulose (dissolved in 50 mM potassium dihydrogenphosphate, pH 5.0). […]

[4] = In vivo pharmacokinetics of MMF after p.o. administration; design: species or system female NMRI mice; conditions: female, NMRI, mouse, po, 49.4 mg/kg
Experimental: The pharmacokinetics of MMF after administration of Example 7 and DMF for comparison was investigated in female NMRI mice (3 animals per group). The test compound was dissolved in DMSO/PEG300 (20/80) and administered p.o. (gavage) at a dose volume of 10 ml/kg. DMF was given at a dose of 45 mg/kg. The test compound was dosed at a MMF-equivalent dose, i.e. 49.4 mg/kg. Blood samples were taken at 0.25, 0.5, 1.0, 2.0, 4.0, 6.0 and 8.0 h after drug administration.
Pharmacokinetic parameters, derived by non-compartmental analysis for test compound

[5] = Caco-2, Papp × 10^−6 [cm/sec] mean ± s.d.

## C[C@]12CC[C@H]3[C@@H](CCC4=CC(=O)CC[C@@]43C)[C@@H]1CC[C@@H]2O [Testosterone, testosterone]
[1]; direction a-b
  recovery at 90 min, 250 μM: 67.3 ± 1.2%
[1]; direction b-a
  recovery at 90 min: 94.9 ± 0.9%
[2]; direction a-b
  Recovery [%] mean ± s.d.: 62.5 ± 2.1%
[2]; direction b-a
  Recovery [%] mean ± s.d.: 76.1 ± 4.5%

## CC[C@H]1OC(=O)[C@H](C)[C@@H](O[C@H]2C[C@@](C)(OC)[C@@H](O)[C@H](C)O2)[C@H](C)[C@@H](O[C@@H]2O[C@H](C)C[C@H](N(C)C)[C@H]2O)[C@](C)(O)C[C@@H](C)C(=O)[C@H](C)[C@@H](O)[C@]1(C)O [Erythromycin, erythromycin]
[1]; Caco-2, Efflux ratio (b-a/a-b)
  efflux ratio at 90 min: 55.9
[1]; [5]
  Papp A→B at 90 min, 250 μM: 0.2 ± 0.02 ×10⁻⁶ cm/s
  Papp B→A at 90 min: 12.3 ± 0.4 ×10⁻⁶ cm/s
[1]
  recovery at 90 min: 99.9 ± 2.4%
  recovery at 90 min, 250 μM: 108 ± 2.2%
[2]; human, Caco-2, 90 min
  Efflux ratio (b-a/a-b): 100.8
  Papp × 10^−6 [cm/sec] mean ± s.d.: 11.5 ± 0.5 10^−6 cm/sec
  Recovery [%] mean ± s.d.: 89.1 ± 8.5%
[2]; human, Caco-2, 90 min, 250 μM
  Papp × 10^−6 [cm/sec] mean ± s.d.: 0.1 ± 0.2 10^−6 cm/sec
  Recovery [%] mean ± s.d.: 91.0 ± 1.9%

## COC(=O)/C=C/C(=O)OC [DMF, Dimethyl fumarate]
[1]; [5]
  Papp A→B at 90 min, 250 μM: 1.8 ± 0.2 ×10⁻⁶ cm/s
[1]
  recovery at 90 min, 250 μM: 11.6%
[2]
  permeability category compared to the reference molecules: moderate permeability
[3]
  body weight: remained stable
  clinical symptoms (clinical score, grade 0-10): protected from the development of clinical symptoms

## COC(=O)/C=C/C(=O)OCC(O)COC(=O)/C=C/C(=O)OC [Example 7, (E)-But-2-enedioic acid 2-hydroxy-3-((E)-3-methoxycarbonyl-acryloyloxy)-propyl ester methyl ester]
[1]; [5]
  Papp A→B at 90 min, 250 μM: 2.5 ± 0.2 ×10⁻⁶ cm/s
[1]
  recovery at 90 min, 250 μM: 18.3%
[2]
  permeability category compared to the reference molecules: moderate permeability
[4]
  Tmax of MMF: 15 min

Reference: patent US9796659B2, “Derivatives of polyhydroxy compounds” (RATIOPHARM GMBH, priority 2014, dated 2017)
